# “Also recorded” adds a separate entry of the source. Where two headings read alike, the source gives them in different places.
# What was measured:
# [1] = UPAPS behavioral pain scoring and rescue analgesia after castration (Part II); format: in vivo, piglets; details: -1 h, 0 h and +3 h relative to castration; compared to C (saline); listed as FM
# Procedure: Behavior scoring was obtained in real-time by observing each piglet for 4-min continuously using Unesp-Botucatu pig acute pain scale (UPAPS). Each piglet was scored by one trained observer at the following timepoints: 1 h before castration (−1 h), immediately post-castration (0 h), and 3 h post-castration (+3 h, FIG. 3). The 4-min sampling time was obtained from the methodology previously validated. Treatments were masked, randomized, and applied to each piglet by a senior researcher. The Unesp-Botucatu UPAPS scale evaluates five behavioral items, with each item divided into four descriptive levels. A numerical score was designated from “0” to “3”, with a “0” representing normal behavior (free of pain) and “3” corresponding to pronounced behavioral deviation (severe pain). Therefore, for each timepoint, piglets may receive a score ranging from 0 (min) to 15 (max; Table 3). Total pain scores were then calculated for each piglet per timepoint. […] This is most referred to rescue analgesia in the literature; and was conducted for each behavioral assessment. Total counts were calculated for piglets identified as requiring or not requiring rescue analgesia by treatment and timepoint. […]
# [2] = Pilot pharmacokinetic study of intranasal flunixin, three catheter sites; format: in vivo; details: female, Yorkshire cross, plasma, inhaled or intranasal, 3.0 mg/kg IN, one grower pig; for AUC / Cmax: pig, 3 mg/kg; for AUC: read-out: area under the curve (AUC) (converted); for Cmax: read-out: peak concentration (Cmax)
# Excerpt: A pilot study in one animal was initially performed to compare jugular venous drug concentrations to those of other sites (femoral artery and auricular artery), as there was concern that drainage of the nasal sinus would produce higher concentrations of flunixin in the blood collected from the jugular vein.
# The pilot study involved one female Yorkshire cross grower pig sourced from a production farm weighing 25.3 kg. The pig was sedated with IM Telazol®, ketamine, and xylazine (TKX). The Telazol® was reconstituted with ketamine (250 mg; 2.5 mL) and xylazine (250 mg; 2.5 mL; Dechra Veterinary Products, Overland Park, KS, USA) and administered IM at a dose of 0.03 mL/kg (1.5 mg/kg) for each medication before being intubated and maintained on isoflurane anesthesia. A femoral arterial catheter, jugular venous catheter, and auricular arterial catheter were placed using sterile technique. […] A higher dose than the label dose was chosen to ensure that the drug would be detectable since this study's purpose was to determine an appropriate catheter site. Using an intranasal mucosal atomization device (MAD) (Teleflex, Morrisville, NC, USA) with 1 mL luer lock syringe, each nostril was infused with 0.75 mL (37.5 mg) of flunixin to administer a total of 1.5 mL (75 mg). Plasma samples were collected from each catheter site at pre-treatment (blank), 0.08, 0.25, 0.5, 0.85, 1, 1.5, 2, 2.5, and 3 hours post-treatment and analyzed using ultra performance liquid chromatography and tandem mass spectrometry (UPLC-MS/MS) to determine flunixin concentrations. A non-compartmental pharmacokinetic analysis was then performed.
# [3] = Observations and limited gross necropsy of the nasal cavity after IN or IM flunixin; format: in vivo, grower pigs
# Procedure: Six female Yorkshire cross grower pigs approximately 8 weeks of age with no history of flunixin administration in a 30-day period were sourced from a production farm and enrolled in the study. The pigs were determined to be healthy by veterinary physical examination and pigs initially weighed between 18.0-22.0 kg. The pigs were individually housed in climate-controlled rooms with a 12:12 light dark cycle at the North Carolina State University College of Veterinary Medicine to prevent cross contamination between pigs and damage to jugular catheters. The pens had non-slip flooring, allowed the pigs to move freely, provided enrichment, and were cleaned at least twice daily. The pigs had ad libitum access to water via a nipple drinker and were fed 0.5 quarts of Nature's Match twice daily. The pigs acclimated for 1-2 days before they were anesthetized for jugular catheter placement as described in the pilot study above and were provided approximately 24 hours to recover from anesthesia before the study began. From the time of arrival until the end of the study, the pigs were monitored at least twice daily for general appearance, attitude, appetite, and wellbeing.
# [4] = cited from earlier work
# [5] = cited from earlier work; for mitigation of pain associated with castration (and tail docking): earlier published studies in pigs, route as in the sentence
# [6] = IM flunixin in pigs; cited from earlier work
# [7] = IM flunixin 2.2 mg/kg compared to ketoprofen 3 mg/kg and meloxicam 0.4 mg/kg; swine; cited from earlier work
# [8] = in vivo; details: female, Yorkshire cross, pig, plasma, 2.2 mg/kg
# Procedure: Six female Yorkshire cross grower pigs approximately 8 weeks of age with no history of flunixin administration in a 30-day period were sourced from a production farm and enrolled in the study. The pigs were determined to be healthy by veterinary physical examination and pigs initially weighed between 18.0-22.0 kg. The pigs were individually housed in climate-controlled rooms with a 12:12 light dark cycle at the North Carolina State University College of Veterinary Medicine to prevent cross contamination between pigs and damage to jugular catheters. The pens had non-slip flooring, allowed the pigs to move freely, provided enrichment, and were cleaned at least twice daily. The pigs had ad libitum access to water via a nipple drinker and were fed 0.5 quarts of Nature's Match twice daily. […] From the time of arrival until the end of the study, the pigs were monitored at least twice daily for general appearance, attitude, appetite, and wellbeing.
# To facilitate jugular catheter placement, the pigs were sedated with Telazol®, reconstituted with ketamine and xylazine as previously described, intubated, and maintained on gas isoflurane anesthesia. A 22-gauge, 10 cm intravenous catheter (MILA, International, Inc., Florence, KY, USA) was placed into the jugular vein using sterile technique. It was sutured in place with 3-0 nylon and covered in Ioban™ (3M, St. Paul, MN, USA) to prevent damage. The pigs wore custom jackets throughout the study to protect the catheters and an extension set was attached to allow for easy catheter access and restraint-free blood collection.
# All pigs were randomized to determine the first administration route. Group 1 (n=3 pigs) and Group 2 (n=3 pigs) were used in a cross-over design and received 2.2 mg/kg flunixin (Banamine®-S, Merck Animal Health, Madison, NJ, USA) by either the IM or IN route. Following a 5-day washout period, the pigs were administered 2.2 mg/kg flunixin via the opposite route. IN administration was completed using a MAD600 MADgic laryngo-tracheal mucosal atomization device (Teleflex Medical, Morrisville, NC, USA). The luer lock syringe was attached to this device and drug was placed into the nostril. Before administration, 0.22 mL of the drug was added to the device to account for dead space volume. After the IN dose, pigs were encouraged to keep their heads raised for approximately 10 seconds to prevent leakage of the drug out of the nasal cavity. Intramuscular administration was performed in the omotransversarius muscle using a 20G needle.
# Blood samples were collected at 0 (pre-treatment), 0.16, 0.33, 0.5, 0.75, 1, 1.5, 2, 3, 4, 6, 8, 12, 18, 24, 36, 48, and 60 hours post treatment. To avoid heparin contamination in samples, at least 1 mL of blood was collected as a purge sample before 1-2 mL of blood was collected and placed into lithium heparin tubes (BD Vacutainer, Franklin Lakes, NJ, USA). The purge blood was injected back into the catheter before the catheter was flushed with 3-4 mL of heparinized saline to prevent coagulation. The blood tubes were placed on ice for no more than 1 hour before they were processed. Plasma was separated by centrifugation at 3500×g for 10 minutes at 4° C., equally split between two cryovials, mixed, and stored at −80° C. until analysis.
# To prepare samples, 100 μL of plasma was pipetted into a clean borosilicate glass tube (disposable culture tubes, CWR). To pretreat the plasma, 500 μL of 4% phosphoric acid prepared in water was added to each tube. Solid phase extraction was performed on an oasis prime HLB 96 well μElution plate (Waters Corporation, Milford, MA, USA). The plate was prepared by conditioning the plate with 500 μL of methanol followed by 500 μL of ultrapure water.
# [9] = IV administration 2.2 mg/kg, piglets, Kittrell et al. (2020)
# [10] = PO administration 3.3 mg/kg, piglets, Kittrell et al. (2020)
# [11] = TD administration 3.3 mg/kg, piglets, Kittrell et al. (2020)
# 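For F in this document: grower pigs about 8 weeks old weighing 18.0-22.0 kg, randomized cross-over of both routes separated by a 5-day washout, blood taken via jugular vein catheter.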
smiles,measurement,setting,value
Cc1c(Nc2ncccc2C(=O)O)cccc1C(F)(F)F [flunixin meglumine],total UPAPS scores,[1],did not decrease; also recorded: behavioral differences were not noted
same,AUC,[2]; auricular artery,12800 ng·h/mL
same,Cmax,[2]; auricular artery,6000 ng/mL
same,AUC,[2]; femoral artery,12300 ng·h/mL
same,Cmax,[2]; femoral artery,5170 ng/mL
same,AUC,[2]; jugular vein,12800 ng·h/mL
same,Cmax,[2]; jugular vein,6820 ng/mL
same,Tmax,"[2]; all catheter sites, read-out: time to peak concentration (Tmax)",15 min
same,adverse effects on the pigs,"[3]; following IN or IM administration, 2.2 mg/kg",No major adverse effects
same,limited gross necropsy of the nasal cavity,"[3]; following euthanasia, after IN administration",no negative effects
same,half-life,[4]; [9],7.06 h
same,maximum observed drug concentration,[4]; [9],12.03 µg/mL
same,Cmax,[4]; [10],4990 ng/mL
same,Tmax,[4]; [10],55.8 min
same,half-life,[4]; [10],11.38 h
same,Cmax,[4]; [11],40 ng/mL
same,Tmax,[4]; [11],1350 min
same,half-life,[4]; [11],38.89 h
same,bioavailability,"[4]; transdermal formulation, pigs",low bioavailability
same,blood concentrations,"[4]; transdermal formulation, swine, Kittrell et al. (2020)",low blood concentrations
same,numerical decrease of cortisol concentrations,"[5]; FM topically 24 h prior to castration vs saline-treated piglets, not significant",more than 30%
same,mitigation of pain associated with castration (and tail docking),[5],effective
same,mitigation of pain associated with castration (and tail docking),[5]; listed as flunixin,more effective; also recorded: superior
same,total pain scores,"[5]; immediately post castration, transdermal flunixin treated piglets, castrated piglets 4.9, video observation",3.1
same,cortisol concentrations,"[5]; intramuscular FM, 2 h post-castration, vs castrated non-treated control, Nixon 2021",decreased cortisol concentrations
same,rescue analgesia intervention,"[5]; transdermal FM 24 h before castration, control pigs 54%",29%
same,label withdrawal time,[6],12 days
same,bioavailability,[7],higher bioavailability
same,terminal half-life,[7],longer terminal half-life
same,AUC(0-inf),[8]; im,6900 ng·h/mL
same,AUC(0-t),[8]; im,6900 ng·h/mL
same,CL/F,[8]; im,5 mL/min/kg
same,Cmax,[8]; im,4000 ng/mL
same,Tmax,[8]; im,12 min
same,Vd/F,[8]; im,3.2 L/kg
same,AUC(0-t),[8]; inhaled or intranasal,4800 ng·h/mL
same,CL/F,[8]; inhaled or intranasal,8.33 mL/min/kg
same,Cmax,[8]; inhaled or intranasal,2700 ng/mL
same,Tmax,[8]; inhaled or intranasal,12 min
same,Vd/F,[8]; inhaled or intranasal,5.4 L/kg
same,bioavailability,[8]; other: intranasal,88.5%

# Source: US20240285594A1, “COMPOSITIONS AND METHODS FOR TREATING PAIN IN ANIMALS” (North Carolina State University, priority 2023, published 2024)
